Where two headings read alike, the source gives them in different places.
Key:
HTT mRNA = experiment: RT-qPCR splicing assay, HTT mRNA canonical (CJ) and alternative (AJ) junction; format: cell-based, human; conditions: Homo sapiens; for AC50: HTT alternative junction mRNA, read-out: HTT AJ (increase in AJ mRNA, AC50)
Summary of the method: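 Both isoforms, CJ and AJ, read by qPCR from crude lysates of treated A673 or K562 cells; 24 h, 37 °C, maximum 10 uM. Normalization: housekeeper ΔCt, then DMSO ΔΔCt.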

Target C = experiment: RT-qPCR canonical junction panel assay, Target C mRNA; format: cell-based; conditions: Table 4, read-out: Target C IC50 (decrease in CJ mRNA levels)
Summary of the method: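 IC50 is the concentration giving 50% CJ decrease, from a 4-parameter logistic fit of percent response; response derived from ΔΔCt against housekeeper and DMSO over a fixed ΔCt window, with canonical exon-junction qPCR in compound-treated K562 or A673 cells.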

[1] = HTT canonical junction mRNA, RT-qPCR, read-out: HTT CJ (decrease in CJ mRNA levels, IC50)
[2] = canonical junction qPCR panel, Table 4, read-out: HTT IC50 (decrease in CJ mRNA levels)

| IC50 (HTT mRNA; [1]) [nM] | IC50 (HTT mRNA; [2]) [nM] | IC50 (Target C) [nM] | SMILES | AC50 (HTT mRNA; RT-qPCR) [nM] |
| --- | --- | --- | --- | --- |
| 100 to 1000 | 100 to 1000 | > 10000 | CNC1CCN(c2ccc3nc(-c4cc5cn(C)nc5c(C)c4O)ncc3n2)C1 (centres unmarked) [Compound 337, 2,7-dimethyl-5-{6-[3-(methylamino)pyrrolidin-1-yl]pyrido[3,2-d]pyrimidin-2-yl}indazol-6-ol] | 100 to 1000 |
| 100 to 1000 | 100 to 1000 | 1000 to 10000 | Cc1c(O)c(-c2ncc3nc(N4CCNCC4)ccc3n2)cc2cn(C)nc12 [Compound 338, 2,7-dimethyl-5-[6-(piperazin-1-yl)pyrido[3,2-d]pyrimidin-2-yl]indazol-6-ol] | 1000 to 10000 |
| 100 to 1000 | 100 to 1000 | 100 to 1000 | Cc1nc2cc(O)c(-c3ccc4nc(N5CCC(NC(C)(C)C)C5)ccc4n3)cc2n1C (centres unmarked) [Compound 339, 6-{6-[3-(tert-butylamino)pyrrolidin-1-yl]-1,5-naphthyridin-2-yl}-1,2-dimethyl-1,3-benzodiazol-5-ol] | 100 to 1000 |
| 100 to 1000 | 100 to 1000 | 100 to 1000 | Cc1nc2cc(-c3ccc4nc(N5CCC(NC(C)(C)C)C5)ccc4n3)c(O)cc2n1C (centres unmarked) [Compound 340, 6-{6-[3-(tert-butylamino)pyrrolidin-1-yl]-1,5-naphthyridin-2-yl}-2,3-dimethyl-1,3-benzodiazol-5-ol] | 100 to 1000 |
| 100 to 1000 | 100 to 1000 | 100 to 1000 | Cn1cc2cc(-c3ccc4nc(N5CCC(NC67CC(O)(C6)C7)C5)ccc4n3)c(O)cc2n1 (centres unmarked) [Compound 341, 5-{6-[3-({3-hydroxybicyclo[1.1.1]pentan-1-yl}amino)pyrrolidin-1-yl]-1,5-naphthyridin-2-yl}-2-methylindazol-6-ol] | 100 to 1000 |
| 100 to 1000 | 100 to 1000 | 100 to 1000 | Cc1c(O)c(-c2ncc3nc(N4CCC5(CCN5)C4)ccc3n2)cc2cn(C)nc12 (centres unmarked) [Compound 342, 5-(6-{1,6-diazaspiro[3.4]octan-6-yl}pyrido[3,2-d]pyrimidin-2-yl)-2,7-dimethylindazol-6-ol] | 100 to 1000 |
| 1000 to 10000 | 1000 to 10000 | 1000 to 10000 | CCc1nc2cc(O)c(-c3ccc4nc(N5CCC(NC(C)(C)C)C5)ccc4n3)cc2o1 (centres unmarked) [Compound 346, 6-{6-[3-(tert-butylamino)pyrrolidin-1-yl]-1,5-naphthyridin-2-yl}-2-ethyl-1,3-benzoxazol-5-ol] | 1000 to 10000 |
| < 100 | < 100 | 100 to 1000 | Cc1nc2cc(O)c(-c3ccc4nc(N5CC[C@H](N[C@H]6C[C@H](F)C6)C5)ccc4n3)cc2o1 [Compound 350, 2-methyl-6-{6-[(3S)-3-{[(1r,3r)-3-fluorocyclobutyl]amino}pyrrolidin-1-yl]-1,5-naphthyridin-2-yl}-1,3-benzoxazol-5-ol] | < 100 |

Continued, compound first:

| SMILES | IC50 (HTT mRNA; [1]) [nM] | IC50 (HTT mRNA; [2]) [nM] | IC50 (Target C) [nM] | AC50 (HTT mRNA; RT-qPCR) [nM] |
| --- | --- | --- | --- | --- |
| CN[C@H]1CCN(c2ccc3nc(-c4cc(F)c5nc(C)cn5c4)ncc3n2)C1 [Compound 332, (S)-1-(2-(8-fluoro-2-methylimidazo[1,2-a]pyridin-6-yl)pyrido[3,2-d]pyrimidin-6-yl)-N-methylpyrrolidin-3-amine] | 100 to 1000 | 100 to 1000 | 100 to 1000 | 100 to 1000 |
| CC(C)(C)NC1CCN(c2ccc3nc(-c4cc5oc(C6CC6)nc5cc4O)ccc3n2)C1 (centres unmarked) [Compound 333, 6-{6-[3-(tert-butylamino)pyrrolidin-1-yl]-1,5-naphthyridin-2-yl}-2-cyclopropyl-1,3-benzoxazol-5-ol] | 100 to 1000 | 100 to 1000 | 100 to 1000 | 100 to 1000 |
| COCc1nc2cc(O)c(-c3ccc4nc(N5CCC(NC(C)(C)C)C5)ccc4n3)cc2o1 (centres unmarked) [Compound 334, 6-{6-[3-(tert-butylamino)pyrrolidin-1-yl]-1,5-naphthyridin-2-yl}-2-(methoxymethyl)-1,3-benzoxazol-5-ol] | 100 to 1000 | 100 to 1000 | 100 to 1000 | 100 to 1000 |
| COc1cc2nc(C3COC3)oc2cc1-c1ccc2nc(N3CCC(NC(C)(C)C)C3)ccc2n1 (centres unmarked) [Compound 335] | 1000 to 10000 | 1000 to 10000 | 1000 to 10000 | 1000 to 10000 |
| CC(C)(C)NC1CCN(c2ccc3nc(-c4cc5oc(CO)nc5cc4O)ccc3n2)C1 (centres unmarked) [Compound 336, 6-{6-[3-(tert-butylamino)pyrrolidin-1-yl]-1,5-naphthyridin-2-yl}-2-(hydroxymethyl)-1,3-benzoxazol-5-ol] | < 100 | < 100 | 100 to 1000 | 100 to 1000 |
| Cc1cc2nc(-c3ccc4nc(N5CCC(NC(C)(C)C)C5)ccc4n3)cn2c(C)n1 (centres unmarked) [Compound 344, N-tert-butyl-1-(6-{5,7-dimethylimidazo[1,2-c]pyrimidin-2-yl}-1,5-naphthyridin-2-yl)pyrrolidin-3-amine] | 1000 to 10000 | 1000 to 10000 | > 10000 | 1000 to 10000 |

Source: patent US20250092065A1, “2-(INDAZOL-5-YL)-6-(PIPERIDIN-4-YL)-1,7-NAPHTHYRIDINE DERIVATIVES AND RELATED COMPOUNDS AS MODULATORS FOR SPLICING NUCLEIC ACIDS AND FOR THE TREATMENT OF PROLIFERATIVE DISEASES” (REMIX THERAPEUTICS INC., priority 2022, published 2025)
